Legend:
[1] = test system: johnsongrass; test: Test E preemergence; type: in vivo, Sorghum halepense; settings: 21 days, scale 0 to 100
Description: (§1) Seeds of plant species selected from bermudagrass (Cynodon dactylon), Surinam grass (Brachiaria decumbens), crabgrass, large (large crabgrass, Digitaria sanguinalis), crabgrass, naked (naked crabgrass, Digitaria nuda), foxtail, green (green foxtail, Setaria viridis), johnsongrass (Sorghum halepense), kochia (Kochia scoparia), morningglory (pitted morningglory, Ipomoea lacunosa), nutsedge, purple (purple nutsedge, Cyperus rotundus), ragweed (common ragweed, Ambrosia elation), mustard, black (black mustard, Brassica nigra), guineagrass (Panicum maximum), dallisgrass (Paspalum dilatatum), barnyardgrass (Echinochloa crus-galli), sandbur (southern sandbur, Cenchrus echinatus), sowthistle (common sowthistle, Sonchus oleraceous), ryegrass, Italian (Italian ryegrass, Lolium multiflorum), signalgrass (broadleaf signalgrass, Brachiaria platyphylla), dayflower, VA (Virginia (VA) dayflower, Commelina virginica), bluegrass (annual bluegrass, Poa annua), quackgrass (Elytrigia repens), mallow (common mallow, Malva sylvestris), buckwheat, wild (wild buckwheat, Polygonum convolvulus), leafy spurge (Euphorbia esula), common chickweed (Stellaria media), wild poinsettia (Euphorbia heterophylla), pigweed, palmer (palmer pigweed, Amaranthus palmeri), and pigweed (redroot pigweed, Amaranthus retroflexus) were planted into a blend of loam soil and sand and treated preemergence with test chemicals formulated in a non-phytotoxic solvent mixture which included a surfactant.
(§2) Treated plants and controls were maintained in a greenhouse for 21 days, after which time all species were compared to controls and visually evaluated. Plant response ratings, summarized in Table E, are based on a scale of 0 to 100 where 0 is no effect and 100 is complete control. A dash (-) response means no test result.

[2] = test system: dallisgrass; test: Test E preemergence; type: in vivo, Paspalum dilatatum; settings: 21 days, scale 0 to 100
Description: as §1, §2

[3] = test system: ryegrass, Italian; test: Test E preemergence; type: in vivo, Lolium multiflorum; settings: 21 days, scale 0 to 100
Description: as §1, §2

[4] = test system: buckwheat, wild; test: Test E preemergence; type: in vivo, Polygonum convolvulus; settings: 21 days, scale 0 to 100
Description: as §1, §2

[5] = test system: soybean; test: Test F postemergence; type: in vivo, Glycine max; settings: scale 0 to 100
Description: (§3) Seeds of plant species selected from corn (Zea mays), soybean (Glycine max), velvetleaf (Abutilon theophrasti), lambsquarters (Chenopodium album), wild poinsettia (Euphorbia heterophylla), pigweed, palmer (palmer pigweed, Amaranthus palmeri), common waterhemp (Amaranthus rudis), surinam grass (Brachiaria decumbens), large crabgrass (Digitaria sanguinalis), crabgrass, Brazil (Brazilian crabgrass, Digitaria horizontalis), fall panicum (Panicum dichotomiflorum), giant foxtail (Setaria faberii), green foxtail (Setaria viridis), goosegrass (Eleusine indica), johnsongrass (Sorghum halepense), common ragweed (Ambrosia elation), barnyardgrass (Echinochloa crus-galli), southern sandbur (Cenchrus echinatus), arrowleaf sida (Sida rhombifolia), Italian ryegrass (Lolium multiflorum), dayflower, VA (Virginia (VA) dayflower, Commelina virginica), field bindweed (Convolvulus arvensis), cocklebur (common cocklebur, Xanthium strumarium), morningglory (Ipomoea coccinea), nightshade (eastern black nightshade, Solanum ptycanthum), kochia (Kochia scoparia), yellow nutsedge (Cyperus esculentus), and hairy beggarticks (Bidens pilosa), were planted into a silt loam soil and treated preemergence with test chemicals formulated in a non-phytotoxic solvent mixture which included a surfactant.
(§4) At the same time, plants from these crop and weed species and also horseweed (Canada horseweed, Conyza canadensis), smartweed (ladysthumb smartweed, Polygonum persicaria), waterhemp_RES1, (ALS & Triazine resistant common waterhemp, Amaranthus rudis), and waterhemp_RES2, (ALS & HPPD resistant common waterhemp, Amaranthus rudis) were treated with postemergence applications of test chemicals formulated in the same manner. Plants ranged in height from 2 to 18 cm for postemergence treatments (1- to 4-leaf stage). Treated plants and controls were maintained in a greenhouse for 14 to 21 days, after which time all species were compared to controls and visually evaluated. Plant response ratings, summarized in Table F, are based on a scale of 0 to 100 where 0 is no effect and 100 is complete control. A dash (-) response means no test result.

[6] = test system: common ragweed; test: Test F postemergence; type: in vivo, Ambrosia elation; settings: scale 0 to 100
Description: as §3, §4

[7] = test system: hairy beggarticks; test: Test F postemergence; type: in vivo, Bidens pilosa; settings: scale 0 to 100
Description: as §3, §4

[8] = test system: horseweed; test: Test F postemergence; type: in vivo, Conyza canadensis; settings: scale 0 to 100
Description: as §3, §4

Row | Compound | Plant response rating, Johnsongrass ([1]; 16 g ai/ha) | Plant response rating, Johnsongrass ([1]; 31 g ai/ha) | Plant response rating, Johnsongrass ([1]; 62 g ai/ha) | Plant response rating, Johnsongrass ([1]; 125 g ai/ha) | Plant response rating, Johnsongrass ([1]; 250 g ai/ha) | Plant response rating, Dallisgrass ([2]; 16 g ai/ha) | Plant response rating, Dallisgrass ([2]; 31 g ai/ha) | Plant response rating, Dallisgrass ([2]; 62 g ai/ha) | Plant response rating, Dallisgrass ([2]; 125 g ai/ha) | Plant response rating, Dallisgrass ([2]; 250 g ai/ha) | Plant response rating, Ryegrass, Italian ([3]; 16 g ai/ha) | Plant response rating, Ryegrass, Italian ([3]; 31 g ai/ha) | Plant response rating, Ryegrass, Italian ([3]; 62 g ai/ha) | Plant response rating, Ryegrass, Italian ([3]; 125 g ai/ha) | Plant response rating, Ryegrass, Italian ([3]; 250 g ai/ha) | Plant response rating, Buckwheat, Wild ([4]; 16 g ai/ha) | Plant response rating, Buckwheat, Wild ([4]; 31 g ai/ha) | Plant response rating, Buckwheat, Wild ([4]; 62 g ai/ha) | Plant response rating, Buckwheat, Wild ([4]; 125 g ai/ha) | Plant response rating, Buckwheat, Wild ([4]; 250 g ai/ha) | also measured
1 | CCc1cc(C(=O)NCC(F)(F)F)nn1Cc1ccnc(C(F)(F)F)c1 [Compound 78, 5-ethyl-N-(2,2,2-trifluoroethyl)-1-[[(2-trifluoromethyl)-4-pyridinyl]methyl]-1H-pyrazole-3-carboxamide] | 40 | 80 | 85 | 100 | 100 | 90 | 100 | 100 | 100 | 100 | 10 | 50 | 90 | 100 | 100 | 60 | 100 | 100 | 100 | 100 | Plant response rating, Soybean ([5]; Postemergence, 31 g ai/ha): 75; Plant response rating, Soybean ([5]; Postemergence, 250 g ai/ha): 95; Plant response rating, Soybean ([5]; postemergence, 62 g ai/ha): 80; Plant response rating, Soybean ([5]; postemergence, 500 g ai/ha): 100; Plant response rating, Common Ragweed ([6]; Postemergence, 31 g ai/ha): 65; Plant response rating, Common Ragweed ([6]; Postemergence, 125 g ai/ha): 70; Plant response rating, Common Ragweed ([6]; Postemergence, 250 g ai/ha): 80; Plant response rating, Common Ragweed ([6]; postemergence, 62 g ai/ha): 50; Plant response rating, Common Ragweed ([6]; postemergence, 500 g ai/ha): 95; Plant response rating, Hairy Beggarticks ([7]; Postemergence, 31 g ai/ha): 30; Plant response rating, Hairy Beggarticks ([7]; Postemergence, 125 g ai/ha): 50; Plant response rating, Hairy Beggarticks ([7]; Postemergence, 250 g ai/ha): 75; Plant response rating, Hairy Beggarticks ([7]; postemergence, 62 g ai/ha): 40; Plant response rating, Hairy Beggarticks ([7]; postemergence, 500 g ai/ha): 90; Plant response rating, Horseweed ([8]; Postemergence, 31 g ai/ha): 25; Plant response rating, Horseweed ([8]; Postemergence, 125 g ai/ha): 40; Plant response rating, Horseweed ([8]; Postemergence, 250 g ai/ha): 50; Plant response rating, Horseweed ([8]; postemergence, 62 g ai/ha): 30; Plant response rating, Horseweed ([8]; postemergence, 500 g ai/ha): 75
2 | CCc1cc(C(=O)NC(C)C)nn1Cc1ccnc(C(F)(F)F)c1 [Compound 103] | 70 | 100 | 100 | 100 | 100 | 90 | 100 | 100 | 100 | 100 | 50 | 98 | 100 | 100 | 100 | 95 | 100 | 100 | 100 | 100 | 
3 | CCOc1cc(C(=O)NC(C)C)nn1Cc1ccnc(C(F)(F)F)c1 [Compound 188] |  |  |  |  |  |  |  |  |  |  |  |  |  |  |  |  |  |  |  |  | Plant response rating, Soybean ([5]; Postemergence, 31 g ai/ha): 98; Plant response rating, Soybean ([5]; Postemergence, 125 g ai/ha): 95; Plant response rating, Soybean ([5]; Postemergence, 250 g ai/ha): 98; Plant response rating, Soybean ([5]; postemergence, 62 g ai/ha): 95; Plant response rating, Soybean ([5]; postemergence, 500 g ai/ha): 98; Plant response rating, Common Ragweed ([6]; Postemergence, 31 g ai/ha): 50; Plant response rating, Common Ragweed ([6]; Postemergence, 125 g ai/ha): 70; Plant response rating, Common Ragweed ([6]; Postemergence, 250 g ai/ha): 85; Plant response rating, Common Ragweed ([6]; postemergence, 62 g ai/ha): 60; Plant response rating, Common Ragweed ([6]; postemergence, 500 g ai/ha): 98; Plant response rating, Hairy Beggarticks ([7]; Postemergence, 31 g ai/ha): 50; Plant response rating, Hairy Beggarticks ([7]; Postemergence, 125 g ai/ha): 50; Plant response rating, Hairy Beggarticks ([7]; Postemergence, 250 g ai/ha): 60; Plant response rating, Hairy Beggarticks ([7]; postemergence, 62 g ai/ha): 60; Plant response rating, Hairy Beggarticks ([7]; postemergence, 500 g ai/ha): 75; Plant response rating, Horseweed ([8]; Postemergence, 31 g ai/ha): 20; Plant response rating, Horseweed ([8]; Postemergence, 125 g ai/ha): 30; Plant response rating, Horseweed ([8]; Postemergence, 250 g ai/ha): 40; Plant response rating, Horseweed ([8]; postemergence, 62 g ai/ha): 30; Plant response rating, Horseweed ([8]; postemergence, 500 g ai/ha): 50
4 | CCOc1cc(C(=O)NC2CC2)nn1Cc1ccnc(C(F)(F)F)c1 [Compound 189] | 25 | 100 | 100 |  |  | 75 | 100 | 100 |  |  | 20 | 50 | 100 |  |  | 100 | 100 | 100 |  |  | Plant response rating, Johnsongrass ([1]; 4 g ai/ha): 0; Plant response rating, Johnsongrass ([1]; 8 g ai/ha): 0; Plant response rating, Dallisgrass ([2]; 4 g ai/ha): 0; Plant response rating, Dallisgrass ([2]; 8 g ai/ha): 5; Plant response rating, Ryegrass, Italian ([3]; 4 g ai/ha): 0; Plant response rating, Ryegrass, Italian ([3]; 8 g ai/ha): 0; Plant response rating, Buckwheat, Wild ([4]; 4 g ai/ha): 70; Plant response rating, Buckwheat, Wild ([4]; 8 g ai/ha): 100

Reference: patent US20150105252A1, “SUBSTITUTED PYRAZOLES AS HERBICIDES” (E I DU PONT DE NEMOURS AND COMPANY, priority 2013, published 2015)
